According to patent US9586951B2 (FUJIFILM Corporation, priority 2013, dated 2017):

What was measured:
[1] = system: human non-small cell lung cancer cell line NCI-H460; experiment: Cell proliferation inhibition test by sensitivity-enhancing to ionizing radiation (Cell Titer Glo); type: cell-based; settings: concentration in which SER became 2, NCI-H460 cells, ionizing radiation 2 Gy, cultured 120 hour
Procedure, shortened: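 Radiosensitisation measured as SER, a ratio of Cell Titer Glo luminescence in irradiated vs unirradiated plates relative to DMSO; SER2, the concentration yielding SER 2, came from sigmoidal regression. Compound (0.1% DMSO) was given 24 h post-seeding, 2 Gy applied 30 min later, then 120 hour culture at 37° C.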

ATM = target: T1, ATM (Homo sapiens, UniProt Q13315); experiment: ATM inhibition test (phosphorylation of Chk2 generated by ionizing radiation, AlphaScreen SureFire); type: cell-based; settings: phosphorylated Chk2 in NCI-H460 cells, ionizing radiation 8Gy, 1 hour after test compound treatment; read-out: ATM inhibitory activity
T1 construct: detecting phosphorylation of Chk2 in a human non-small cell lung cancer cell line NCI-H460 (ATCC company); host or cells: NCI-H460 human non-small cell lung cancer cells
Procedure, shortened: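 Human NCI-H460 lung cancer cells were treated with compound for 1 h, then irradiated at 8Gy and incubated 1 h at 37° C. Phospho-Chk2 was quantified by AlphaScreen SureFire; inhibition % was normalised between irradiated untreated and non-irradiated untreated wells.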

T1 sequence (Q13315 whole entry): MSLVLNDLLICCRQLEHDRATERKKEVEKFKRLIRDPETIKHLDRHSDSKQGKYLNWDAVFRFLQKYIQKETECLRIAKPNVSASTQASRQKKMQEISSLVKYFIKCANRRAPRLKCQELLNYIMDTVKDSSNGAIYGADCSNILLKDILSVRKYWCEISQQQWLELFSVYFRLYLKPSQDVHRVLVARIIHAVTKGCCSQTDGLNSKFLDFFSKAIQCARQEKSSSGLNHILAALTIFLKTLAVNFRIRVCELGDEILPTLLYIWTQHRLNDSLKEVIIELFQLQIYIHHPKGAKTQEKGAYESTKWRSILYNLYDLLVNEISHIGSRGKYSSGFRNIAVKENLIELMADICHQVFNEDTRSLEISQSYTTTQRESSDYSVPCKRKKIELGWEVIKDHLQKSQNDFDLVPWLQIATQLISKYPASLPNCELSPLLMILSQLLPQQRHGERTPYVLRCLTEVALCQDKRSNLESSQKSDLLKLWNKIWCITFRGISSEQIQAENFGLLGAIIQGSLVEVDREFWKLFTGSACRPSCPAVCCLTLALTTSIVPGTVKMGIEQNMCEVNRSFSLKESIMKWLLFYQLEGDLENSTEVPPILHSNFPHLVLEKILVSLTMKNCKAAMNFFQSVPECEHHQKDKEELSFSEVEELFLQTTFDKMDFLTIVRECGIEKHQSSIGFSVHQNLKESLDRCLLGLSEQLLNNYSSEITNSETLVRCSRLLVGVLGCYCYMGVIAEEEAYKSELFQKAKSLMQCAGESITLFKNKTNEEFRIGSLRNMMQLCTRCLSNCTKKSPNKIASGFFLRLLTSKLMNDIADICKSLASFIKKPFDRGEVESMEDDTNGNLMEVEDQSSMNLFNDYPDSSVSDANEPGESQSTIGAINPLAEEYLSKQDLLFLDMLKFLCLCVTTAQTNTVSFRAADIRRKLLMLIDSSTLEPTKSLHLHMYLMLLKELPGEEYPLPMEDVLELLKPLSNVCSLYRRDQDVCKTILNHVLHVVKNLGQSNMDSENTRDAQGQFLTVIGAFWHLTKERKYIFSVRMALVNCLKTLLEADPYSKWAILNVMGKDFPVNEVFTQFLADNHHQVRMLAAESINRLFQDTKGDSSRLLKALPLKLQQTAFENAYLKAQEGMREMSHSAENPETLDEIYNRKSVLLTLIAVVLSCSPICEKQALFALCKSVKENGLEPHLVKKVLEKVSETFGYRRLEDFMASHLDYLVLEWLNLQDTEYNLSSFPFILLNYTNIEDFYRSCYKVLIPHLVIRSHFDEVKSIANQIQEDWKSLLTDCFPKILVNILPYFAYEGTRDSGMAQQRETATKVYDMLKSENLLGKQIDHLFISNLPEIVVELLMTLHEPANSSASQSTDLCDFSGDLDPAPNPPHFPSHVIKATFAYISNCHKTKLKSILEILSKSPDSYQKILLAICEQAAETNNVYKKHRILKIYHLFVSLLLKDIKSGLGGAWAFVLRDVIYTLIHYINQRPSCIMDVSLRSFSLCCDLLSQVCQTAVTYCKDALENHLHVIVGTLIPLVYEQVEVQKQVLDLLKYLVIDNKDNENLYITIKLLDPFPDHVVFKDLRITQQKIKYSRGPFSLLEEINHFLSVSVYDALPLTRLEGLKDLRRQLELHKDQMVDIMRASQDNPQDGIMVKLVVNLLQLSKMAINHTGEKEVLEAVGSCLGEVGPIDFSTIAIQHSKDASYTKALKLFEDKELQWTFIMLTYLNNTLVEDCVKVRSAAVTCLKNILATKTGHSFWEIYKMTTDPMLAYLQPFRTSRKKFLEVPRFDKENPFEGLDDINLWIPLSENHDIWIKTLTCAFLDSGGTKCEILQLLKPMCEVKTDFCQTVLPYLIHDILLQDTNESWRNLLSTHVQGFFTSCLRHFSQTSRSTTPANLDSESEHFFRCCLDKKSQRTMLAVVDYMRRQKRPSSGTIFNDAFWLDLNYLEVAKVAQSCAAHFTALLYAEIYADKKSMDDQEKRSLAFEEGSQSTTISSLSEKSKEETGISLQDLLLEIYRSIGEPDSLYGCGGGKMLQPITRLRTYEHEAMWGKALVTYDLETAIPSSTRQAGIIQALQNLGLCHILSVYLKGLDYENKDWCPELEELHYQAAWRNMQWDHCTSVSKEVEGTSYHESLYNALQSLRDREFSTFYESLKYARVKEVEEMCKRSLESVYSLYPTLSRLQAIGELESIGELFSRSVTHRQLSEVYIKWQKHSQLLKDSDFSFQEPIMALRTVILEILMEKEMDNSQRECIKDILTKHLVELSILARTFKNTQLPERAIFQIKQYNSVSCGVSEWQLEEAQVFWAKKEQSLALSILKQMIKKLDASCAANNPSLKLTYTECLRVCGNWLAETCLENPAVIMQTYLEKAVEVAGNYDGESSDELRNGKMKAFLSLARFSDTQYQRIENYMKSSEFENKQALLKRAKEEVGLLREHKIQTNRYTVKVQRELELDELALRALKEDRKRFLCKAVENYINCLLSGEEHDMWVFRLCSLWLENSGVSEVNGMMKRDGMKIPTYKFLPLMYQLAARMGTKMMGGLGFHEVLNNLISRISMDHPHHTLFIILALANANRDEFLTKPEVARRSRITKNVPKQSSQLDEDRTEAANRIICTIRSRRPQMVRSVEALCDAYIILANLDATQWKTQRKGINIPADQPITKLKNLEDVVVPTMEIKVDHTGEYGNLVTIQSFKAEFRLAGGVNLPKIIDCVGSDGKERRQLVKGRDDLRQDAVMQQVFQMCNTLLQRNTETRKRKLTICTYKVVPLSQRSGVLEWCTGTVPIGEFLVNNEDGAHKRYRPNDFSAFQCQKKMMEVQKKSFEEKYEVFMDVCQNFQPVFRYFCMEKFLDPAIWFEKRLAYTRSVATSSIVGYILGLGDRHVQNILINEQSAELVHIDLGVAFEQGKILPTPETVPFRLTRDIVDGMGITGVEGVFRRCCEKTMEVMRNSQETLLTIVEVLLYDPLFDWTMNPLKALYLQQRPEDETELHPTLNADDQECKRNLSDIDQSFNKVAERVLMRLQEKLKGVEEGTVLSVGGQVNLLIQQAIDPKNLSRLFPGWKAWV

| SMILES | IC50 (ATM) | SER2 (concentration at which the radiation sensitivity-enhancement ratio reaches 2) ([1]; Homo sapiens, NCI-H460, 120 h) | SER2 (concentration at which the radiation sensitivity-enhancement ratio reaches 2) [1] |
| --- | --- | --- | --- |
| O=c1cc(N2CCOCC2)cc(-c2cccc3c2Oc2ccc(NCc4cncc(Cl)n4)cc2C3)[nH]1 [Example 2-13-1, 6-(7-(((6-chloropyrazin-2-yl)methyl)amino)-9H-xanthen-4-yl)-4-morpholinopyridin-2(1H)-one] | 100 to 500 nM | 500 to 2000 nM | – |
| COCCCC(Nc1ccc2c(c1)Sc1cccc(-c3cc(N4CCOCC4)cc(=O)[nH]3)c1S2)c1ccc(C)cn1 (centres unmarked) [Example 1-12-130, 6-(7-((4-Methoxy-1-(5-methylpyridin-2-yl)butyl)amino)thianthren-1-yl)-4-morpholino pyridin-2(1H)-one] | < 100 nM | 100 to 500 nM | – |
| Cc1cnc(C(C)Nc2ccc3c(c2)Sc2cccc(-c4cc(N5CCOCC5)cc(=O)[nH]4)c2S3)cn1 (centres unmarked) [Example 1-12-64, 6-(7-((1-(5-Methylpyrazin-2-yl)ethyl)amino)thianthren-1-yl)-4-morpholino pyridin-2(1H)-one] | < 100 nM | < 100 nM | – |
| COC[C@H](CN1CCC(C(F)(F)F)CC1)Nc1ccc2c(c1)Sc1cccc(-c3cc(N4CCOCC4)cc(=O)[nH]3)c1S2 [Example 1-46-8, (S)-6-(7-((1-Methoxy-3-(4-(trifluoromethyl)piperidin-1-yl)propan-2-yl)amino)thianthren-1-yl)-4-morpholino pyridin-2(1H)-one] | < 100 nM | 100 to 500 nM | – |
| Cc1ccnc(C(CO)Nc2ccc3c(c2)Sc2cccc(-c4cc(N5CCOCC5)cc(=O)[nH]4)c2S3)c1 (centres unmarked) [Example 1-12-65, 6-(7-((2-Hydroxy-1-(4-methylpyridin-2-yl)ethyl)amino)thianthren-1-yl)-4-morpholino pyridin-2(1H)-one] | < 100 nM | 100 to 500 nM | – |
| O=c1cc(N2CCOCC2)cc(-c2cccc3c2Sc2ccc(NC(CF)CN4CCOCC4)cc2S3)[nH]1 (single isomer, unassigned) [Example 1-41-1-2, 6-(7-((1-fluoro-3-morpholinopropan-2-yl)amino)thianthren-1-yl)-4-morpholinopyridin-2(1H)-one] | < 100 nM | < 100 nM | – |
| CC(Nc1ccc2c(c1)Cc1cccc(-c3cc(N4CCOCC4)cc(=O)[nH]3)c1O2)c1cc(Cl)ccn1 (centres unmarked) [Example 2-14-23, 6-(7-((1-(4-Chloropyridin-2-yl)ethyl)amino)-9H-xanthen-4-yl)-4-morpholino pyridin-2(1H)-one] | < 100 nM | 100 to 500 nM | – |
| CCN(C)CCC(Nc1ccc2c(c1)Sc1cccc(-c3cc(N4CCOCC4)cc(=O)[nH]3)c1S2)c1cccc(C)n1 (centres unmarked) [Example 1-23-1, 6-(7-((3-(ethyl(methyl)amino)-1-(6-methylpyridin-2-yl)propyl)amino)thianthren-1-yl)-4-morpholinopyridin-2(1H)-one] | < 100 nM | 100 to 500 nM | – |
| O=c1cc(N2CCOCC2)cc(-c2cccc3c2Oc2ccc(NCc4ccc(F)nc4)cc2C3)[nH]1 [Example 2-2-11, 6-(7-(((6-Fluoropyridin-3-yl)methyl)amino)-9H-xanthen-4-yl)-4-morpholino pyridin-2 (1H)-one] | < 100 nM | 100 to 500 nM | – |
| Cc1cnc(C(C)Nc2ccc3c(c2)Sc2cccc(-c4cc(N5CCOCC5)cc(=O)[nH]4)c2S3)cn1 (single isomer, unassigned) [Example 1-12-137-2, 6-(7-((1-(5-methylpyrazin-2-yl)ethyl)amino)thianthren-1-yl)-4-morpholinopyridin-2(1H)-one] | < 100 nM | – | 100 to 500 nM |
| COC(=O)C(Nc1ccc2c(c1)Sc1cccc(-c3cc(N4CCOCC4)cc(=O)[nH]3)c1S2)c1ccc(C)cn1 (centres unmarked) [Example 1-12-108, Methyl 2-(5-methylpyridin-2-yl)-2-((6-(4-morpholino-6-oxo-1,6-dihydropyridin-2-yl)thianthren-2-yl)amino) acetate] | < 100 nM | 100 to 500 nM | – |
| Cc1ccc(C(CCCN(C)C)Nc2ccc3c(c2)Sc2cccc(-c4cc(N5CCOCC5)cc(=O)[nH]4)c2S3)nc1 (centres unmarked) [Example 1-50-7, 6-(7-((4-(Dimethylamino)-1-(5-methylpyridin-2-yl)butyl)amino)thianthren-1-yl)-4-morpholino pyridin-2(1H)-one] | < 100 nM | 100 to 500 nM | – |

The next lines start with results.

| IC50 (ATM) | SMILES | SER2 (concentration at which the radiation sensitivity-enhancement ratio reaches 2) ([1]; Homo sapiens, NCI-H460, 120 h) | SER2 (concentration at which the radiation sensitivity-enhancement ratio reaches 2) [1] |
| --- | --- | --- | --- |
| < 100 nM | CC(Nc1ccc2c(c1)Sc1cccc(-c3cc(N4CCOCC4)cc(=O)[nH]3)c1S2)c1cc(CF)ncn1 (centres unmarked) [Example 1-12-91, 6-(7-((1-(6-(Fluoromethyl)pyrimidin-4-yl)ethyl)amino)thianthren-1-yl)-4-morpholino pyridin-2(1H)-one] | 100 to 500 nM | – |
| < 100 nM | Cc1ccnc(C(CO)Nc2ccc3c(c2)Sc2cccc(-c4cc(N5CCOCC5)cc(=O)[nH]4)c2S3)c1 (single isomer, unassigned) [Example 1-12-138-2, 6-(7-((2-hydroxy-1-(4-methylpyridin-2-yl)ethyl)amino)thianthren-1-yl)-4-morpholinopyridin-2(1H)-one] | < 100 nM | – |
| < 100 nM | Cc1ccnc(C(CO)Nc2ccc3c(c2)Sc2cccc(-c4cc(N5CCOCC5)cc(=O)[nH]4)c2S3)n1 (centres unmarked) [Example 1-12-90, 6-(7-((2-Hydroxy-1-(4-methylpyrimidin-2-yl)ethyl)amino)thianthren-1-yl)-4-morpholino pyridin-2(1H)-one] | 100 to 500 nM | – |
| < 100 nM | CC(Nc1ccc2c(c1)Cc1cccc(-c3cc(N4CCOCC4)cc(=O)[nH]3)c1O2)c1cc(Cl)ccn1 (single isomer, unassigned) [Example 2-14-89-2, 6-(7-((1-(4-chloropyridin-2-yl)ethyl)amino)-9H-xanthen-4-yl)-4-morpholinopyridin-2(1H)-one] | < 100 nM | – |
| < 100 nM | Cc1ccc(CNc2ccc3c(c2)Sc2cccc(-c4cc(N5CCOCC5)cc(=O)[nH]4)c2O3)nc1 [Example 4-8-13, 6-(8-(((5-Methylpyridin-2-yl)methyl)amino)phenoxathiin-4-yl)-4-morpholino pyridin-2(1H)-one] | 100 to 500 nM | – |
| < 100 nM | Cn1cc(-c2ccnc(CNc3ccc4c(c3)Cc3cccc(-c5cc(N6CCOCC6)cc(=O)[nH]5)c3O4)c2)cn1 [Example 2-2-74, 6-(7-(((4-(1-Methyl-1H-pyrazol-4-yl)pyridin-2-yl)methyl)amino)-9H-xanthen-4-yl)-4-morpholino pyridin-2(1H)-one] | 100 to 500 nM | – |
| < 100 nM | O=c1cc(N2CCOCC2)cc(-c2cccc3c2Oc2ccc(NCc4ccc(F)nc4)cc2S3)[nH]1 [Example 4-8-24, 6-(8-(((6-Fluoropyridin-3-yl)methyl)amino)phenoxathiin-4-yl)-4-morpholino pyridin-2(1H)-one] | 100 to 500 nM | – |
| < 100 nM | Cc1cccc(C(C)Nc2ccc3c(c2)Sc2cccc(-c4cc(N5CCOCC5)cc(=O)[nH]4)c2S3)n1 (single isomer, unassigned) [Example 1-12-136-2, 6-(7-((1-(6-methylpyridin-2-yl)ethyl)amino)thianthren-1-yl)-4-morpholinopyridin-2(1H)-one] | – | 100 to 500 nM |
| < 100 nM | Cc1ccnc(CNc2ccc3c(c2)Sc2cccc(-c4cc(N5CCOCC5)cc(=O)[nH]4)c2O3)c1 [Example 4-8-19, 6-(8-(((4-Methylpyridin-2-yl)methyl)amino)phenoxathiin-4-yl)-4-morpholino pyridin-2(1H)-one] | 100 to 500 nM | – |
| < 100 nM | Cc1cncc(C(C)Nc2ccc3c(c2)Sc2cccc(-c4cc(N5CCOCC5)cc(=O)[nH]4)c2S3)c1 (centres unmarked) [Example 1-12-50, 6-(7-((1-(5-Methylpyridin-3-yl)ethyl)amino)thianthren-1-yl)-4-morpholino pyridin-2 (1H)-one] | 100 to 500 nM | – |
| < 100 nM | Cc1cccc(CNc2ccc3c(c2)Sc2cccc(-c4cc(N5CCOCC5)cc(=O)[nH]4)c2O3)n1 [Example 4-8-5, 6-(8-(((6-Methylpyridin-2-yl)methyl)amino)phenoxathiin-4-yl)-4-morpholino pyridin-2(1H)-one] | 100 to 500 nM | – |
| < 100 nM | COc1cncc(CNc2ccc3c(c2)Cc2cccc(-c4cc(N5CCOCC5)cc(=O)[nH]4)c2O3)n1 [Example 2-13-9, 6-(7-(((6-Methoxypyrazin-2-yl)methyl)amino)-9H-xanthen-4-yl)-4-morpholino pyridin-2(1H)-one] | 500 to 2000 nM | – |
| < 100 nM | CNc1ncc(CNc2ccc3c(c2)Sc2cccc(-c4cc(N5CCOCC5)cc(=O)[nH]4)c2O3)cn1 [Example 4-4-13, 6-(8-(((2-(Methylamino)pyrimidin-5-yl)methyl)amino)phenoxathiin-4-yl)-4-morpholino pyridin-2(1H)-one] | 100 to 500 nM | – |
